From ChEMBL document CHEMBL1201862, “PubChem BioAssay data set” (2004)
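Following 48 hours of exposure in 96-well plates, responses at five concentrations were used to interpolate endpoints linearly. Abbreviation: GI50, concentration required for 50% inhibition of growth.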 The source made the active and inactive calls. Cut-off read from the data, not from the text of the source: active = GI50 up to about 1.1 µM and inactive = higher.

Tests used:
Test in all cases: inhibition of tumour cell growth, NCI panel, 48 h
[1] = test system: HCT-116
[2] = test system: KM-20L2
[3] = test system: HL-60
[4] = test system: OVCAR-8
[5] = test system: DLD-1
[6] = test system: HCT-15
[7] = test system: HOP-18
[8] = test system: U-251
[9] = test system: SF-295
[10] = test system: DMS-114
[11] = test system: SNB-75
[12] = test system: UO-31
[13] = test system: SR
[14] = test system: SK-OV-3
[15] = test system: NCI-H460
[16] = test system: DMS-273
[17] = test system: HOP-62
[18] = test system: SF-539
[19] = test system: SW-620
[20] = test system: NCI-H522
[21] = test system: M19-MEL
[22] = test system: CAKI-1
[23] = test system: K562
[24] = test system: RPMI-8226
[25] = test system: A498
[26] = test system: UACC-257
[27] = test system: Malme-3M
[28] = test system: NCI-H23
[29] = test system: SK-MEL-28
[30] = test system: OVCAR-5
[31] = test system: COLO 205
[32] = test system: CCRF-CEM
[33] = test system: 786-0
[34] = test system: LOX IMVI
[35] = test system: SF-268
[36] = test system: IGROV-1
[37] = test system: OVCAR-4
[38] = test system: SNB-78
[39] = test system: ACHN
[40] = test system: MOLT-4
[41] = test system: NCI-H226
[42] = test system: RXF 393
[43] = test system: M14
[44] = test system: LXFL 529
[45] = test system: UACC-62
[46] = test system: SK-MEL-2
[47] = test system: OVCAR-3
[48] = test system: KM12
[49] = test system: TK-10
[50] = test system: HOP-92
[51] = test system: A549
[52] = test system: HT-29
[53] = test system: SN12C
[54] = test system: SK-MEL-5
[55] = test system: HCC 2998
[56] = test system: MCF7
[57] = test system: XF498

SMILES: c1ccc(C2OCCO2)c(OCCOc2cc(OCCOc3ccccc3C3OCCO3)c(OCCOc3ccccc3C3OCCO3)cc2OCCOc2ccccc2C2OCCO2)c1
- GI50 [1]: 14.5 µM (inactive)
- GI50 [2]: > 100 µM (inactive)
- GI50 [3]: > 100 µM (inactive)
- GI50 [4]: 13.9 µM (inactive)
- GI50 [5]: > 100 µM (inactive)
- GI50 [6]: > 100 µM
- GI50 [7]: > 100 µM (inactive)
- GI50 [8]: 10.3 µM (inactive)
- GI50 [9]: 17.9 µM (inactive)
- GI50 [10]: 11.8 µM (inactive)
- GI50 [11]: 2.16 µM (inactive)
- GI50 [12]: 12.9 µM (inactive)
- GI50 [13]: > 100 µM (inactive)
- GI50 [14]: 2.76 µM (inactive)
- GI50 [15]: 24.3 µM (inactive)
- GI50 [16]: 15.3 µM (inactive)
- GI50 [17]: 13.3 µM (inactive)
- GI50 [18]: 10.7 µM (inactive)
- GI50 [19]: 81.3 µM (inactive)
- GI50 [20]: 2.42 µM (inactive)
- GI50 [21]: > 100 µM (inactive)
- GI50 [22]: > 100 µM (inactive)
- GI50 [23]: > 100 µM (inactive)
- GI50 [24]: > 100 µM (inactive)
- GI50 [25]: 15.8 µM (inactive)
- GI50 [26]: > 100 µM (inactive)
- GI50 [27]: 43.1 µM (inactive)
- GI50 [28]: 11.3 µM (inactive)
- GI50 [29]: > 100 µM (inactive)
- GI50 [30]: > 100 µM (inactive)
- GI50 [31]: > 100 µM (inactive)
- GI50 [32]: > 100 µM (inactive)
- GI50 [33]: 4.67 µM (inactive)
- GI50 [34]: 49.4 µM (inactive)
- GI50 [35]: 15.3 µM (inactive)
- GI50 [36]: 12.4 µM (inactive)
- GI50 [37]: 8.34 µM (inactive)
- GI50 [38]: 5.46 µM (inactive)
- GI50 [39]: 24.7 µM (inactive)
- GI50 [40]: > 100 µM (inactive)
- GI50 [41]: 13 µM (inactive)
- GI50 [42]: 5.35 µM (inactive)
- GI50 [43]: 26.7 µM (inactive)
- GI50 [44]: 29.2 µM (inactive)
- GI50 [45]: 9.86 µM (inactive)
- GI50 [46]: 16.5 µM (inactive)
- GI50 [47]: 17.8 µM (inactive)
- GI50 [48]: 91.8 µM (inactive)
- GI50 [49]: 14.7 µM (inactive)
- GI50 [50]: 5.28 µM (inactive)
- GI50 [51]: 24.4 µM (inactive)
- GI50 [52]: > 100 µM (inactive)
- GI50 [53]: > 100 µM (inactive)
- GI50 [54]: 26.1 µM (inactive)

SMILES: CC1[C@@H]2CC=C3[C@H]4CCC5Cc6nc7c(nc6C[C@@]5(C)C4(O)CC(=O)[C@]32CO[C@]12OC(C)(C)CC2O)CC1CC[C@@H]2C3=C[C@H]4O[C@@]5(O[C@@](C)(CO)C[C@@H]5O)C(C)[C@@]4(O)[C@]3(C)[C@@H](O)CC2[C@]1(C)C7 (some centres not stated)
- GI50 [3]: < 0.0001 µM (active)
- GI50 [55]: 74.8 nM (active)
- GI50 [9]: < 0.0001 µM (active)
- GI50 [10]: 0.00011 µM (active)
- GI50 [11]: < 0.0001 µM (active)
- GI50 [16]: < 0.0001 µM (active)
- GI50 [18]: < 0.0001 µM (active)
- GI50 [24]: < 0.0001 µM (active)
- GI50 [25]: 0.000342 µM (active)
- GI50 [56]: 1.94 nM (active)
- GI50 [42]: < 0.0001 µM (active)
- GI50 [57]: < 0.1 nM (active)
- GI50 [49]: 0.0204 µM (active)
